Test results taken from ChEMBL document CHEMBL1201862, “PubChem BioAssay data set” (2004).
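Five concentrations, 48 hours, 96-well plates. Here, GI50 denotes the concentration required for 50% inhibition of growth.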 Activity calls are given as the source filed them. No stated cut-off is given here; in the data, active = GI50 up to about 1.1 µM and inactive = higher.

Key:
Assay in all cases: DTP human tumour cell line panel, 48 h
U-251 = system: U-251
ACHN = system: ACHN
SK-MEL-5 = system: SK-MEL-5
IGROV-1 = system: IGROV-1
OVCAR-8 = system: OVCAR-8
786-0 = system: 786-0
OVCAR-3 = system: OVCAR-3
TK-10 = system: TK-10
SR = system: SR
SF-268 = system: SF-268
SK-MEL-28 = system: SK-MEL-28
LXFL 529 = system: LXFL 529
UO-31 = system: UO-31
LOX IMVI = system: LOX IMVI
HOP-18 = system: HOP-18
OVCAR-5 = system: OVCAR-5
KM12 = system: KM12
CAKI-1 = system: CAKI-1
HOP-62 = system: HOP-62
HL-60 = system: HL-60
MOLT-4 = system: MOLT-4
SF-539 = system: SF-539
CCRF-CEM = system: CCRF-CEM
SNB-75 = system: SNB-75
XF498 = system: XF498
Malme-3M = system: Malme-3M
UACC-257 = system: UACC-257
NCI-H522 = system: NCI-H522
SNB-78 = system: SNB-78
DLD-1 = system: DLD-1
DMS-114 = system: DMS-114
HCT-15 = system: HCT-15
HT-29 = system: HT-29
NCI-H226 = system: NCI-H226
EKVX = system: EKVX
HCT-116 = system: HCT-116
SK-OV-3 = system: SK-OV-3
KM-20L2 = system: KM-20L2
SNB-19 = system: SNB-19
M14 = system: M14
UACC-62 = system: UACC-62
NCI-H460 = system: NCI-H460
A549 = system: A549
NCI-H23 = system: NCI-H23
SK-MEL-2 = system: SK-MEL-2
RPMI-8226 = system: RPMI-8226
COLO 205 = system: COLO 205
HOP-92 = system: HOP-92
M19-MEL = system: M19-MEL
A498 = system: A498
HCC 2998 = system: HCC 2998
RXF 393 = system: RXF 393
SN12C = system: SN12C
K562 = system: K562
SF-295 = system: SF-295
SW-620 = system: SW-620
DMS-273 = system: DMS-273
OVCAR-4 = system: OVCAR-4
NCI/ADR-RES = system: NCI/ADR-RES
MCF7 = system: MCF7

For `COC(=O)[C@]1(C)C(OC)=CC(=O)C2C1[C@H]1CCC[C@@H]21` (stereo not given in full), the GI50 (U-251) was > 100 µM (inactive), the GI50 (ACHN) was > 100 µM (inactive) and the GI50 (SK-MEL-5) was > 100 µM (inactive). For the same compound, the GI50 (IGROV-1) was > 100 µM (inactive), the GI50 (OVCAR-8) was > 100 µM (inactive) and the GI50 (786-0) was > 100 µM (inactive). For the same compound, the GI50 (OVCAR-3) was > 100 µM (inactive), the GI50 (TK-10) was > 100 µM (inactive) and the GI50 (SR) was > 100 µM (inactive). The GI50 (SF-268) was > 100 µM (inactive), the GI50 (SK-MEL-28) was > 100 µM (inactive) and the GI50 (LXFL 529) was > 100 µM (inactive). For the same compound, the GI50 (UO-31) was > 100 µM (inactive), the GI50 (LOX IMVI) was > 100 µM (inactive) and the GI50 (HOP-18) was > 100 µM (inactive). The GI50 (OVCAR-5) was > 100 µM (inactive), the GI50 (KM12) was > 100 µM (inactive) and the GI50 (CAKI-1) was > 100 µM (inactive). For the same compound, the GI50 (HOP-62) was > 100 µM (inactive), the GI50 (HL-60) was > 100 µM (inactive) and the GI50 (MOLT-4) was > 100 µM (inactive). For the same compound, the GI50 (SF-539) was > 100 µM (inactive), the GI50 (CCRF-CEM) was > 100 µM (inactive) and the GI50 (SNB-75) was > 100 µM (inactive). For the same compound, the GI50 (XF498) was > 100 µM (inactive), the GI50 (Malme-3M) was > 100 µM (inactive) and the GI50 (UACC-257) was > 100 µM (inactive). The GI50 (NCI-H522) was > 100 µM (inactive), the GI50 (SNB-78) was > 100 µM (inactive) and the GI50 (DLD-1) was > 100 µM (inactive). The GI50 (DMS-114) was > 100 µM (inactive), the GI50 (HCT-15) was over 100 µM and the GI50 (HT-29) was > 100 µM (inactive). For the same compound, the GI50 (NCI-H226) was > 100 µM (inactive), the GI50 (EKVX) was > 100 µM (inactive) and the GI50 (HCT-116) was > 100 µM (inactive). For the same compound, the GI50 (SK-OV-3) was > 100 µM (inactive), the GI50 (KM-20L2) was > 100 µM (inactive) and the GI50 (SNB-19) was > 100 µM (inactive). For the same compound, the GI50 (M14) was > 100 µM (inactive), the GI50 (UACC-62) was > 100 µM (inactive) and the GI50 (NCI-H460) was > 100 µM (inactive). The GI50 (A549) was > 100 µM (inactive), the GI50 (NCI-H23) was > 100 µM (inactive) and the GI50 (SK-MEL-2) was > 100 µM (inactive). For the same compound, the GI50 (RPMI-8226) was > 100 µM (inactive), the GI50 (COLO 205) was > 100 µM (inactive) and the GI50 (HOP-92) was > 100 µM (inactive). For the same compound, the GI50 (M19-MEL) was > 100 µM (inactive), the GI50 (A498) was > 100 µM (inactive) and the GI50 (HCC 2998) was > 100 µM (inactive). The GI50 (RXF 393) was > 100 µM (inactive), the GI50 (SN12C) was > 100 µM (inactive) and the GI50 (K562) was > 100 µM (inactive). For the same compound, the GI50 (SF-295) was > 100 µM (inactive).
`COC(=O)C[C@](O)(CCC(C)(C)O)C(=O)O[C@@H]1C(OC)=C[C@]23CCCN2CCc2cc4c(cc2[C@H]13)OCO4` [HARRINGTONINE] was tested, and the GI50 (U-251) was 0.0515 µM (active), the GI50 (SK-MEL-5) was 0.0557 µM (active) and the GI50 (IGROV-1) was 0.0505 µM (active). The GI50 (OVCAR-8) was 0.16 µM (active), the GI50 (OVCAR-3) was 0.0598 µM (active) and the GI50 (SF-268) was 0.148 µM (active). The GI50 (SK-MEL-28) was 0.0593 µM (active), the GI50 (UO-31) was 1.7 µM (inactive) and the GI50 (LOX IMVI) was 0.047 µM (active). The GI50 (HOP-18) was 0.229 µM (active), the GI50 (OVCAR-5) was 0.233 µM (active) and the GI50 (SW-620) was 0.119 µM (active). For the same compound, the GI50 (KM12) was 0.0693 µM (active), the GI50 (CAKI-1) was 0.193 µM (active) and the GI50 (HOP-62) was 0.166 µM (active). The GI50 (HL-60) was 0.0403 µM (active), the GI50 (MOLT-4) was 0.0333 µM (active) and the GI50 (SF-539) was 0.0295 µM (active). For the same compound, the GI50 (CCRF-CEM) was 0.0508 µM (active), the GI50 (SNB-75) was 0.209 µM (active) and the GI50 (XF498) was < 0.01 µM (active). The GI50 (Malme-3M) was 0.0284 µM (active), the GI50 (UACC-257) was 0.158 µM (active) and the GI50 (NCI-H522) was 0.0206 µM (active). For the same compound, the GI50 (SNB-78) was 0.256 µM (active), the GI50 (DLD-1) was 0.121 µM (active) and the GI50 (DMS-273) was 0.0288 µM (active). For the same compound, the GI50 (DMS-114) was 0.0152 µM (active), the GI50 (HCT-15) was 0.379 µM and the GI50 (HT-29) was 0.0661 µM (active). The GI50 (NCI-H226) was 0.0306 µM (active), the GI50 (EKVX) was 0.0802 µM (active) and the GI50 (HCT-116) was 0.0336 µM (active). For the same compound, the GI50 (SK-OV-3) was 0.0984 µM (active), the GI50 (OVCAR-4) was 0.0785 µM (active) and the GI50 (KM-20L2) was 0.0843 µM (active). The GI50 (NCI/ADR-RES) was 7.74 µM (inactive), the GI50 (SNB-19) was 0.0509 µM (active) and the GI50 (UACC-62) was 0.23 µM (active). For the same compound, the GI50 (NCI-H460) was < 0.0182 µM (active), the GI50 (A549) was 0.0579 µM (active) and the GI50 (NCI-H23) was 0.0863 µM (active). The GI50 (SK-MEL-2) was 0.0989 µM (active), the GI50 (MCF7) was 28.8 nM (active) and the GI50 (RPMI-8226) was 0.0566 µM (active). The GI50 (COLO 205) was 0.0977 µM (active), the GI50 (HOP-92) was 0.164 µM (active) and the GI50 (M19-MEL) was 0.107 µM (active). For the same compound, the GI50 (A498) was 0.073 µM (active), the GI50 (HCC 2998) was 0.0239 µM (active) and the GI50 (RXF 393) was 0.103 µM (active). For the same compound, the GI50 (SN12C) was 0.212 µM (active), the GI50 (K562) was 0.05 µM (active) and the GI50 (SF-295) was 0.186 µM (active).
With `CCCCc1c2c(nc3c1CCCC3O)/C(=C/c1ccccc1)CCC2` (stereo not given) the GI50 (U-251) was 28 µM (inactive), the GI50 (ACHN) was 34.8 µM (inactive) and the GI50 (SK-MEL-5) was 21.7 µM (inactive). For the same compound, the GI50 (IGROV-1) was 45.8 µM (inactive), the GI50 (OVCAR-8) was 32 µM (inactive) and the GI50 (786-0) was 22.3 µM (inactive). For the same compound, the GI50 (OVCAR-3) was 18.7 µM (inactive), the GI50 (TK-10) was 26.9 µM (inactive) and the GI50 (SR) was 14 µM (inactive). For the same compound, the GI50 (SF-268) was 31.3 µM (inactive), the GI50 (SK-MEL-28) was 33.5 µM (inactive) and the GI50 (LXFL 529) was 34.1 µM (inactive). For the same compound, the GI50 (UO-31) was 42.9 µM (inactive), the GI50 (LOX IMVI) was 19.7 µM (inactive) and the GI50 (HOP-18) was 24.4 µM (inactive). The GI50 (OVCAR-5) was 32.8 µM (inactive), the GI50 (SW-620) was 26.2 µM (inactive) and the GI50 (KM12) was 18.7 µM (inactive). The GI50 (HOP-62) was 36.5 µM (inactive), the GI50 (HL-60) was 17.3 µM (inactive) and the GI50 (MOLT-4) was 11.6 µM (inactive). For the same compound, the GI50 (SF-539) was 28.1 µM (inactive), the GI50 (CCRF-CEM) was 15.9 µM (inactive) and the GI50 (SNB-75) was 35.3 µM (inactive). The GI50 (XF498) was 13.2 µM (inactive), the GI50 (Malme-3M) was 20.2 µM (inactive) and the GI50 (UACC-257) was 30 µM (inactive). For the same compound, the GI50 (NCI-H522) was 21.7 µM (inactive), the GI50 (SNB-78) was 56 µM (inactive) and the GI50 (DMS-273) was 20.7 µM (inactive). For the same compound, the GI50 (DMS-114) was 22.9 µM (inactive), the GI50 (HCT-15) was 16 µM and the GI50 (HT-29) was 22.1 µM (inactive). The GI50 (NCI-H226) was 26.1 µM (inactive), the GI50 (EKVX) was 29.6 µM (inactive) and the GI50 (HCT-116) was 36.6 µM (inactive). The GI50 (SK-OV-3) was 38.5 µM (inactive), the GI50 (OVCAR-4) was 63.7 µM (inactive) and the GI50 (KM-20L2) was 35.2 µM (inactive). For the same compound, the GI50 (SNB-19) was 43.1 µM (inactive), the GI50 (M14) was 23.1 µM (inactive) and the GI50 (UACC-62) was 33.8 µM (inactive). The GI50 (NCI-H460) was 17.1 µM (inactive), the GI50 (A549) was 49.5 µM (inactive) and the GI50 (NCI-H23) was 27.3 µM (inactive). The GI50 (SK-MEL-2) was 24.8 µM (inactive), the GI50 (RPMI-8226) was 16.8 µM (inactive) and the GI50 (COLO 205) was 17.9 µM (inactive). For the same compound, the GI50 (HOP-92) was 38.7 µM (inactive), the GI50 (M19-MEL) was 23.1 µM (inactive) and the GI50 (A498) was 54.1 µM (inactive). For the same compound, the GI50 (HCC 2998) was 9.84 µM (inactive), the GI50 (RXF 393) was 39.9 µM (inactive) and the GI50 (SN12C) was 23.2 µM (inactive). The GI50 (K562) was 11.4 µM (inactive) and the GI50 (SF-295) was 42.3 µM (inactive).
